Reference: ChEMBL document CHEMBL1140855, “Design, synthesis, and binding affinities of potential positron emission tomography (PET) ligands with optimal lipophilicity for brain imaging of the dopamine D3 receptor. Part II” (Bioorg Med Chem, 2009)
One block for each compound: values may come before it.

Key:
[1] = Lipophilicity, log P of the compound; type: physicochemical; conditions: octanol/water
[2] = Lipophilicity, log P at pH 7.4; type: physicochemical; conditions: buffer
[3] = Dissociation constant, pKa of the compound; type: physicochemical
D(3) dopamine receptor = D(3) dopamine receptor (Homo sapiens, UniProt P35462)
D(3) dopamine receptor, sequence (P35462 whole entry): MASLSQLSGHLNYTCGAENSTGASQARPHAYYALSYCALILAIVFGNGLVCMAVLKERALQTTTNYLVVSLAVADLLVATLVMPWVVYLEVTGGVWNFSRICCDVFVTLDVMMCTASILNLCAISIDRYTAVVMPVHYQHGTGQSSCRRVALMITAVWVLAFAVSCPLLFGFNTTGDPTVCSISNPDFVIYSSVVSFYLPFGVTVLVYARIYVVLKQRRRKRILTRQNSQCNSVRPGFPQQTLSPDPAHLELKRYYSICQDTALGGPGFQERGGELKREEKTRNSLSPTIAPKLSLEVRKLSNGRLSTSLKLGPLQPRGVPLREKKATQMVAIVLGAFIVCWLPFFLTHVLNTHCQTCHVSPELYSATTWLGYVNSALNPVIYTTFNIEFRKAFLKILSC
Description: Displacement of [3H]spiroperidol from human cloned dopamine D3 receptor by liquid scintillation counting

D(2) dopamine receptor = D(2) dopamine receptor (Homo sapiens, UniProt P14416)
D(2) dopamine receptor, sequence (P14416 whole entry): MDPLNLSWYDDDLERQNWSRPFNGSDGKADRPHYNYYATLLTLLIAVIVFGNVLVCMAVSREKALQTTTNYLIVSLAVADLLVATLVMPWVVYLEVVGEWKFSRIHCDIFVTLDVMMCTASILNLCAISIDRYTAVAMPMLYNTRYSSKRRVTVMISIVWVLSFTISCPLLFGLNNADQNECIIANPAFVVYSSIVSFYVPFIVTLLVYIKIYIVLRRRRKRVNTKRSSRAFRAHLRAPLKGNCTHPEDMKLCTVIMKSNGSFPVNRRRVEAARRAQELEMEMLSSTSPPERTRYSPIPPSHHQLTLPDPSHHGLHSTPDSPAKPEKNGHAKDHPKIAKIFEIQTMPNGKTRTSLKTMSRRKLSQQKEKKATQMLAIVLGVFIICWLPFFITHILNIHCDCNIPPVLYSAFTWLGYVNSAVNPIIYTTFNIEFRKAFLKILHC
Description: Displacement of [3H]spiroperidol from human cloned dopamine D2L receptor by liquid scintillation counting

Structure (SMILES): COc1ccccc1N1CCN(CCCCOc2ccc(C3CN4C=CSC4=N3)cc2)CC1 (configuration not stated)
Ki (D(3) dopamine receptor): 0.00012 µM

Structure (SMILES): COc1ccccc1N1CCN(CCCNC(=O)c2ccc3nonc3c2)CC1
logP [1]: 2.66 | logD [2]: 2.34 | pKa [3]: 7.43 | Ki (D(3) dopamine receptor): > 1 µM | Ki (D(2) dopamine receptor): 0.0894 µM

Structure (SMILES): COc1ccc(N2CCN(CCCCNC(=O)c3ccc4nonc4c3)CC2)cc1
logP [1]: 2.77 | logD [2]: 2.41 | pKa [3]: 7.51 | Ki (D(3) dopamine receptor): 6.22 µM | Ki (D(2) dopamine receptor): > 1 µM

Structure (SMILES): COc1cc(F)cc(N2CCN(CCCCNC(=O)c3ccc4nonc4c3)CC2)c1
logP [1]: 3.34 | logD [2]: 3.12 | pKa [3]: 7.34 | Ki (D(3) dopamine receptor): 0.658 µM | Ki (D(2) dopamine receptor): 1.34 µM

Structure (SMILES): O=C(NCCCCN1CCN(c2cccc(OCCF)c2)CC1)c1ccc2nonc2c1
logP [1]: 2.87 | logD [2]: 2.53 | pKa [3]: 7.47 | Ki (D(3) dopamine receptor): 0.226 µM | Ki (D(2) dopamine receptor): > 1 µM

Structure (SMILES): O=C(NCCCCN1CCN(c2ccccc2OCCF)CC1)c1ccc(-n2ccnc2)cc1
logP [1]: 2.9 | logD [2]: 2.4 | pKa [3]: 7.74 | Ki (D(3) dopamine receptor): 0.00295 µM | Ki (D(2) dopamine receptor): 0.00592 µM

Structure (SMILES): COc1ccc(N2CCN(CCCCNC(=O)c3ccc(-n4ccnc4)cc3)CC2)cc1
logP [1]: 2.8 | logD [2]: 2.37 | pKa [3]: 7.64 | Ki (D(3) dopamine receptor): 0.211 µM | Ki (D(2) dopamine receptor): > 1 µM

More lines, in order of falling Ki (D(3) dopamine receptor), values ahead:

logP [1]: 2.8 | logD [2]: 2.48 | pKa [3]: 7.44 | Ki (D(3) dopamine receptor): 0.17 µM | Ki (D(2) dopamine receptor): > 0.1 µM
Structure (SMILES): COc1cccc(N2CCN(CCCCNC(=O)c3ccc4nonc4c3)CC2)c1

logP [1]: 2.59 | logD [2]: 2.22 | pKa [3]: 7.53 | Ki (D(3) dopamine receptor): 0.0953 µM | Ki (D(2) dopamine receptor): 0.121 µM
Structure (SMILES): COc1ccccc1N1CCN(CCCNC(=O)c2ccc(-n3ccnc3)cc2)CC1

logP [1]: 2.9 | logD [2]: 2.51 | pKa [3]: 7.56 | Ki (D(3) dopamine receptor): 0.0472 µM | Ki (D(2) dopamine receptor): 0.196 µM
Structure (SMILES): O=C(NCCCCN1CCN(c2cccc(OCCF)c2)CC1)c1ccc(-n2ccnc2)cc1

logP [1]: 3.16 | logD [2]: 2.8 | pKa [3]: 7.52 | Ki (D(3) dopamine receptor): 0.0292 µM | Ki (D(2) dopamine receptor): 0.133 µM
Structure (SMILES): COc1cc(F)cc(N2CCN(CCCCNC(=O)c3ccc(-n4ccnc4)cc3)CC2)c1

logP [1]: 2.79 | logD [2]: 2.26 | pKa [3]: 7.78 | Ki (D(3) dopamine receptor): 0.0221 µM | Ki (D(2) dopamine receptor): 0.0178 µM
Structure (SMILES): O=C(NCCCCN1CCN(c2ccccc2OCCF)CC1)c1ccc2nonc2c1

logP [1]: 2.93 | logD [2]: 2.51 | pKa [3]: 7.59 | Ki (D(3) dopamine receptor): 0.0199 µM | Ki (D(2) dopamine receptor): 0.243 µM
Structure (SMILES): COc1cccc(N2CCN(CCCCNC(=O)c3ccc(-n4ccnc4)cc3)CC2)c1

logP [1]: 2.79 | logD [2]: 2.26 | pKa [3]: 7.78 | Ki (D(3) dopamine receptor): 0.0047 µM | Ki (D(2) dopamine receptor): 0.031 µM
Structure (SMILES): COc1ccccc1N1CCN(CCCCNC(=O)c2ccc3nonc3c2)CC1

logP [1]: 3.1 | logD [2]: 2.39 | pKa [3]: 8.05 | Ki (D(3) dopamine receptor): 0.00423 µM | Ki (D(2) dopamine receptor): 0.0517 µM
Structure (SMILES): COc1ccccc1N1CCN(CCCCNC(=O)c2ccc(-n3ccnc3)cc2)CC1

Ki (D(3) dopamine receptor): 0.0013 µM
Structure (SMILES): CCCN(CCC)C1CCc2cc(CS(=O)(=O)c3ccc(OC)cc3)ccc2C1 (configuration not stated)
